Results published in patent US20240002388A1, “PYRIMIDINONE COMPOUNDS AND USES THEREOF” (HUTCHISON MEDIPHARMA LIMITED, priority 2020, published 2024).
pIC50: −log10 of the molar value.

Columns and labels:
[1] = molecular target: RIPK1 recombination protein (Homo sapiens (Human), UniProt Q13546); assay: RIPK1 kinase activity assay (ADP-Glo); assay type: biochemical; details: for pIC50: RIPK1 kinase activity, ADP-Glo, 10 μM ATP
Procedure: RIPK1 recombination protein: synthesized by Shanghai Medicilon Inc. under the commission by Hutchison MediPharma Limited (50 g of cell pellet was resuspended in 250 mL of lysis buffer (50 mM Tris, pH 7.5, 250 mM NaCl, 1 mM DTT, protease inhibitor 1:50), the cells were ultrasonically lysed using a sonicator (the power set to 4) on ice for 3×30 minutes; then centrifugation was carried out at 4° C., at 15,000 g for 30 minutes to clarify the suspension, the soluble pellet was resuspended into 10 mL of glutathione agarose, and incubated at 4° C. for 2 hours; then the beads were loaded into the column and washed with lysis buffer (no protease inhibitors) to baseline, and eluted with 20 mM of reduced glutathione (50 mM Tris, pH 8). The fractions identified by SDS-PAGE as containing the protein of interest were collected (10 mL of total volume), concentrated to about 5 mL and loaded into 300 mL superdex75 column (GE Healthcare) equilibrated with buffer (50 mM Tris, pH 7.5, 150 mM NaCl, 1 mM DTT, 10% glycerol, pH 7.5). RIP1 protein was eluted as a dimer from the superdex75 column. The protein concentration was determined by the Bradford assay using BSA as the standard. The yield was 12.5 mg at 0.63 mg/mL. The protein was aliquoted and frozen at −80° C. for later use.
ADP-Glo Kinase kit can be used to measure ADP level in kinase activity assay so as to distinguish the inhibitory effects of different compounds on RIPK1 kinase activity. The ADP-Glo assay was usually divided into three steps. Firstly, the kinase converted ATP to ADP and phosphorylated the substrate at the same time; secondly, ATP digestion reagent was added to degrade all ATP in the reaction system; finally, a detection reagent was added to reduce ADP to ATP, and energy from ATP was transferred to […] which thus emitting a chemical luminescence that can be detected. Assay procedure can refer to manufacture's technical manual.
(2) Reagent Preparation: • 1.33× kinase buffer: 5× kinase buffer stock (250 mM of NaCl, 150 mM of MgCl2, 2.5 mg/ml BSA (bovine serum albumin), 0.1% CHAPS (3-[(3-cholamidopropyl)-dimethyl-ammonio]-1-propane sulfonate), and 5 mM of dithiothreitol) was diluted with water to 1.33× kinase buffer; • RIPK1 enzyme solution: the kinase was dissolved in 1.33× kinase buffer to make 40 nM as the final working concentration; • ATP solution: 10 mM ATP stock solution in water was dissolved in 1.33× kinase buffer to make 10 μM as the final working concentration; • 4× compound preparation: the compound was diluted in a 3-fold gradient, and finally 4% DMSO aqueous solution containing different concentrations of the compound was obtained. The final concentrations of the test compound were 10, 3.33, 1.11, 0.37, 0.12, 0.04, 0.014, and 0.005 μM.
The assay set up two control groups, one was 100% inhibition group (no enzyme treatment), another was 0% inhibition group (no inhibitor treatment), each control group contained 8 replicate wells. 2.5 μl of serially diluted compound was added to each well of a 384-well plate, with double replicate wells, and 4% DMSO solution was added to control wells. Then 5 μl of RIPK1 enzyme solution was added to each well except 100% inhibition control, 5 ul of buffer was added to 100% inhibition control, after that, 2.5 μl of ATP solution was added to all wells, the plate was vibrated at 1000 rpm for 30 seconds to perform transient centrifuge; finally the 384-well assay plate was put in the shaking incubator, and incubated at room temperature for 3 hours. After the enzymatic reaction was completed, 5 μl of ATP depletion reagent was added to each well, the mixture was centrifuged transiently, then the 384-well assay plate was put in the shaking incubator, and incubated at room temperature for 1 hour. 5 μl of ADP detection reagent was added to each well, and the mixture was centrifuged transiently, and incubated at room temperature for 0.5 hour. […]

[2] = tested on: U937 cell line (human histiocytic lymphoma cell line); assay: U937 cell viability assay (TNF-α + Z-VAD-FMK induced necroptosis); assay type: cell-based; details: Homo sapiens, U-937; U937 cells, hTNF-α 0.1 μg/mL + Z-VAD-FMK 50 μM, 20 hours, CellTiter-Glo
Procedure: U937 cell line (human histiocytic lymphoma cell line): purchased from ATCC (American Type Culture Collection) Cell Bank, cultured in a 5% CO2, 37° C. incubator, and RPMI 1640 medium which contains L-glutamine, 1.5 g/L sodium bicarbonate, 2.383 g/L HEPES solution, 0.11 g/L sodium pyruvate and 4.5 g/L glucose, plus 10% fetal bovine serum (FBS) was used. • RPMI 1640 medium: GIBCO, Cat #A10491-01; • Fetal bovine serum (FBS): GIBCO, Cat #10099-141C; • Dimethyl sulfoxide (DMSO): Sigma, Cat #D2650; • Recombinant Human TNF-alpha Protein (hTNF-α): R&D system, Cat #210-TA-100; • Pan-Caspase inhibitor (Z-VAD-FMK): Selleckchem, Cat #S7023; • CellTiter-Glo 2.0 Cell Viability Assay kit: Promega, Cat #G9242; • Microwell plate reader: Envision, Perkin Elmer; • 96-well plate: Corning, Cat #3917.
The U937 cells at the logarithmic phase were taken out, centrifuged to remove the medium, washed with PRMI 1640 medium containing 1% FBS, and diluted with 1% FBS-containing RPMI 1640 medium to 2.5×10^5 cells/ml, inoculated at 70 μL/well into a 96-well plate, i.e., 1.75×10^4 cells/well. The plate was cultured in a 5% CO2, 37° C. cell incubator. After incubating for 1 hour, the test compound was diluted to the corresponding concentrations using DMSO with 3-fold serial dilution, then the corresponding concentration of DMSO diluted solution was diluted into 1% FBS-containing RPMI 1640 medium, and 10 μL/well of the diluted test compound with different concentrations (final concentration of test compound was 1.0, 0.333, 0.111, 0.037, 0.012, 0.004, 0.0014 and 0.0005 μM, while final concentration of DMSO was 0.3%) or 10 μL/well control solution (3% DMSO) were added to the cell culture system respectively, with the total volume being 80 μL/well; Then 10 μL of Z-VAD-FMK solution diluted with 1% FBS-containing RPMI 1640 medium (final concentration of 50 μM) or 10 μL of control solution (2.5% DMSO) was added to each well, with the total volume being 90 μL/well. The plate was incubated in a 5% CO2, 37° C. cell culture incubator for 1 hour.
After being cultured for 1 hour, 10 μL of human recombinant TNF-α protein diluted with 1% FBS-containing RPMI 1640 medium (final concentration of 0.1 μg/mL) or 10 μL/well control solution (1% FBS-containing RPMI 1640 medium) was added to each well. The plate was incubated in a 5% CO2, 37° C. cell culture incubator for 20 hours.
The cell culture plate was taken out from the incubator, and left to stand at room temperature for 30 minutes. Meanwhile, CellTiter-Glo viability assay kit was put from freezer to room temperature, and 50 μL of CellTiter-Glo reagent was added to all wells, the plate was shaken for 1 minutes, protected from light at room temperature for 10 minutes then read the plate on Envision to get the luminescence signal.
The 96-well plate in the dark was taken out, and the chemiluminescence was determined using the Envision microwell plate reader as the signal value of each well.
The mean signal value of the wells of the mixed solution of recombinant human TNF-alpha protein (final concentration of 0.1 μg/mL) and Pan-Caspase inhibitor (final concentration of 50 μM) was used as the lower value, and the mean signal value of the wells without stimulation was used as the upper value. According to the signal value of each well, the inhibition rate of each concentration of every compound was calculated, and the IC50 value of compound was obtained by Model 205 in XL-Fit 5.3 software (ID Business Solutions Limited).
Inhibition rate %=[(Luminescence readout of treated compound−Luminescence readout of positive control)/(Luminescence readout of negative control−Luminescence readout of positive control)]×100%, wherein

RIPK1 recombination protein, sequence (Q13546 other isoform, or with tags, fused parts or gaps): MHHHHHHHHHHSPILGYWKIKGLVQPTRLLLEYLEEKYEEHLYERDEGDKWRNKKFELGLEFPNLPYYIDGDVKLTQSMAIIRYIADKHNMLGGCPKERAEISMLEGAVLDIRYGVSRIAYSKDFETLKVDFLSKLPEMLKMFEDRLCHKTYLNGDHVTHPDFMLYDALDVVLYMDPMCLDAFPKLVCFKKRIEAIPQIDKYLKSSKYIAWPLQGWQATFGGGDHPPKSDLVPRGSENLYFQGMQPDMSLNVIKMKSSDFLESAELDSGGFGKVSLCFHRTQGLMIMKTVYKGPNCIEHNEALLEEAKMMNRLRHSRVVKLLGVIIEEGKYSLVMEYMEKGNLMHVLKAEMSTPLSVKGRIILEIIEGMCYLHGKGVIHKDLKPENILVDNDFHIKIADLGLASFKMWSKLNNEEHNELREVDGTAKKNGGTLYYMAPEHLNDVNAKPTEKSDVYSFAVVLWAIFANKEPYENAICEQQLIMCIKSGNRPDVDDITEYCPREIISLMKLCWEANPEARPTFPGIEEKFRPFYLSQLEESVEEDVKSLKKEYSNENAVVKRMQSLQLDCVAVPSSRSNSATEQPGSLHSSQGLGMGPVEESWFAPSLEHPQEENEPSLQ

SMILES	pIC50 [1]	pIC50 [2]	inhibition at 3 µM ([1]; 3 μM compound, read-out: Inhibition rate at the compound concentration of 3 μM)
Cc1ncc(-c2ccc(C3(NC(=O)c4ncc5cnn(C(C)C)c5n4)CC3)cc2)c(=O)n1C [Compound 31]	6.36		
C[C@@H](c1ccccc1)n1cnc(C(=O)NC2(c3ccc(-c4cncn(C)c4=O)cc3)CC2)n1 [Compound 56, (S)—N-(1-(4-(1-methyl-6-oxo-1,6-dihydropyrimidin-5-yl)phenyl)cyclopropyl)-1-(1-phenylethyl)-1H-1,2,4-triazole-3-carboxamide]	6.72		
Cn1c(N)ncc(-c2ccc(C3(NC(=O)c4nnc(Cc5ccccc5)[nH]4)CC3)cc2)c1=O [Compound 7]	7.41	7.17	
CC(C)n1ncc2cnc(C(=O)NC3(c4ccc(-c5cncn(C)c5=O)cc4Cl)CC3)nc21 [Compound 32]			82.5%
Cn1cncc(-c2ccc(C3(NC(=O)c4nc5n(n4)[C@H](c4ccccc4)CC5)CC3)cc2)c1=O [Compound 53, (S)—N-(1-(4-(1-methyl-6-oxo-1,6-dihydropyrimidin-5-yl)phenyl)cyclopropyl)-5-phenyl-6,7-dihydro-5H-pyrrolo[1,2-b][1,2,4]triazole-2-carboxamide]	6.92	6.26	
Cn1cncc(-c2ccc(C3(NC(=O)c4n[nH]c(Cc5ccccc5)n4)CC3)c(F)c2)c1=O [Compound 48]	7.28	7.41	
C[C@@H](c1ccccc1)c1nnc(C(=O)NC2(c3ccc(-c4cncn(C)c4=O)cc3)CC2)[nH]1 [Compound 58, (S)—N-(1-(4-(1-methyl-6-oxo-1,6-dihydropyrimidin-5-yl)phenyl)cyclopropyl)-5-(1-phenylethyl)-4H-1,2,4-triazole-3-carboxamide]	6.86		
Cc1cc(C2(NC(=O)c3ncc4cnn(C(C)C)c4n3)CC2)ccc1-c1cncn(C)c1=O [Compound 27]	7.34	6.99	
CC(C)n1ncc2cnc(C(=O)NC3(c4ccc(-c5cncn(C)c5=O)c(C(F)(F)F)c4)CC3)nc21 [Compound 24]	7.05	6.79	
C[C@H](c1ccccc1)c1nnc(C(=O)NC2(c3ccc(-c4cncn(C)c4=O)cc3)CC2)[nH]1 [Compound 57, (R)—N-(1-(4-(1-methyl-6-oxo-1,6-dihydropyrimidin-5-yl)phenyl)cyclopropyl)-5-(1-phenylethyl)-4H-1,2,4-triazole-3-carboxamide]	6.27		
